According to patent US9732046B2, “Substituted 1,2,4-triazines as tubulin inhibitors” (YM Biosciences Australia Pty Ltd., priority 2003, dated 2017):

Tests used:
DU145 (Prostate Cancer) = assay: Cellular growth inhibition assay (MTT), DU145; format: cell-based; conditions: Homo sapiens, DU-145, Table 1, 40 hr incubation
Procedure: (§1) For screening purposes, compounds were diluted in 96 well plates at a concentration of 20 μM. Plates were warmed at 37° C. for 30 minutes before assay.
(§2) K562 (Chronic Myeloid Leukemia), PC3 (Prostate Cancer), and DU145 (Prostate Cancer) were obtained from the American Type Culture Collection (ATCC). K562 was grown in RPMI, with 10% FBS with Glutamx added. DU145 cells were cultured in DMED, with 10% FBS and Glutamx and MEM non-essential amino acids added. PC3 cells were grown in F12K medium, with 10% FBS and Glutamx and MEM non-essential amino acids added. All cells were grown at 37° C. in 5% CO2.
(§3) Cell suspensions were prepared by harvesting cells from culture. (Cells used in this test should be in later log phase growth and high viability.) Cells were diluted in correct growth medium to 1.1× final concentration (from 50000 cell/mL to 200,000 cell/mL, depending on cell line).
(§4) Compounds to be tested were added (10 μL, 10× final concentration) to a flat bottom 96-well plate. The cellular suspension (90 μL per well) was added, and the plate incubated for 40 hr at 37° C., 5% CO2. MTT (20 μL per well, 5 mg/mL in PBS) was added and the plates were returned to the incubator for a further 6 hours. Lysis buffer (100 μL per well, 10% SDS, 0.01N HCl) was added and the plate stored in the incubator overnight. The plate was then read at 590 nm.

PC3 (Prostate Cancer) = assay: Cellular growth inhibition assay (MTT), PC3; format: cell-based; conditions: Table 1, 40 hr incubation
Procedure: as §1, §2, §3, §4

[1] = tested on: K562 (Chronic Myeloid Leukemia); assay: Cellular growth inhibition assay (MTT), K562; format: cell-based; conditions: Homo sapiens, Table 1, 40 hr incubation
Procedure: as §1, §2, §3, §4

[2] = target: T1, TelJak2 (BaF3 TELJAK cells, TEL/Jak2 fusion) (Homo sapiens, UniProt O60674); assay: Cellular growth inhibition assay (MTT), BaF3 TEL:JAK2 cell line; format: cell-based; conditions: Table 1, 40 hr incubation
T1 construct: The regions encompassing the kinase domain of JAK2 (nucleotides 2994-3914); expressed in transfected cells; host or cells: BaF3 cells bearing the pTET-off plasmid, transfected with pTELJAK2 (pTRE2 vector); the other entry of the earlier key: ETV6 (P41212, Transcription factor ETV6)
Procedure: as §1
(§5) The coding region encompassing nucleotides 1-487 of TEL was amplified by PCR using the oligonucleotides 5TEL (5′-GGAGGATCCTGATCTCTCTCGCTGTGAGAC-3′) (SEQ ID NO: 1) and 3TEL (5′-AGGC GTCGACTTCTTCTTGATGGTTCTG-3′) (SEQ ID NO: 2) and U937 mRNA as template. A BamH I site was incorporated into the 5TEL primer, and a Sal I site was incorporated into the 3TEL primer. The regions encompassing the kinase domain of JAK2 (nucleotides 2994-3914; JAK2F 5′-ACGC GTCGACGGTGCCTTTGAAGACCGGGAT-3 (SEQ ID NO: 3); JAK2R 5′-ATAGTTTAGCGGCCGCTCAGAATGAAGGTCATTT-3′) (SEQ ID NO: 4) and JAK3 (nucleotides 2520-3469; JAK3F 5′-GAAGTCGACTATGCCTGCCAAGACCCCACGATCTT-3′ (SEQ ID NO: 5); JAK3R 5′-GGATCTAGACTATGAAAAGGACAGGGAGTGGTGTTT-3′ (SEQ ID NO: 6)) were generated by PCR using Taq DNA polymerase (Gibco/BRL) and U937 mRNA as template. A Sal I site was incorporated into the forward primer of JAK2 and JAK3, a Not I site was incorporated into the JAK2 reverse primer and a Xba I site was added to the reverse primer of JAK3.
(§6) A TEL/Jak2 fusion was generated by digestion of the TELPCR product with BamH I/Sa1 I, digestion of the JAK2 PCR product with Sa1 I/Not I followed by ligation and subcloning into the mammalian expression Vector pTRE 2 (Clontech) digested with BamH I-Not I (pTELJAK2). For JAK3 Sa1 I/Not I cleaved kinase domain PCR product was ligated with BamH I/Sa1 I cleaved TELproduct followed by ligation into BamH I/Not I cleaved pTRE2 (pTELJAK3).
(§7) The growth factor dependent myelomonocytic cell line BaF3 bearing the pTET-off plasmid (Clontech) was transfected with either pTELJAK2 or pTELJAK3 and the cells selected for factor independent growth. BaF 3 wild type cells were cultured in DMEM 10% FCS, 10% WEHI 3B conditioned medium. BaF3 TELJAK cells were cultured in DMEM 10% Tet-System Approved FBS (without WEHI 3B conditioned medium).
as §3, §4

[3] = target: T2, TelJak3 (BaF3 TELJAK cells, TEL/JAK3 fusion) (Homo sapiens, UniProt P52333); assay: Cellular growth inhibition assay (MTT), BaF3 TEL:JAK3 cell line; format: cell-based; conditions: Table 1, 40 hr incubation
T2 construct: For JAK3 Sa1 I/Not I cleaved kinase domain PCR product was ligated with BamH I/Sa1 I cleaved TELproduct; expressed in transfected cells; host or cells: BaF3 cells bearing the pTET-off plasmid, transfected with pTELJAK3 (pTRE2 vector); the other entry of the earlier key: ETV6 (P41212, Transcription factor ETV6)
Procedure: as §1, §5, §6, §7, §3, §4

[4] = tested on: Tubulin (microtubule protein); assay: Tubulin assay (turbidometric assay of microtubule assembly); format: biochemical; conditions: Table 1; 50 μM; absorbance at 340 nm, 37° C.
Procedure: Turbidometric assays of microtubule assembly were performed by incubating microtubule protein in cuvettes at 37° C. in a thermostatically controlled spectrophotometer measuring the change in absorbance at 340 nm over time. The microtubule protein was incubated with the each test compound at 0° C. and polymerisation was initiated by addition of 1 mM GTP, prior to heating to 37° C.

T2 sequence (P52333 with tags, fused parts or gaps): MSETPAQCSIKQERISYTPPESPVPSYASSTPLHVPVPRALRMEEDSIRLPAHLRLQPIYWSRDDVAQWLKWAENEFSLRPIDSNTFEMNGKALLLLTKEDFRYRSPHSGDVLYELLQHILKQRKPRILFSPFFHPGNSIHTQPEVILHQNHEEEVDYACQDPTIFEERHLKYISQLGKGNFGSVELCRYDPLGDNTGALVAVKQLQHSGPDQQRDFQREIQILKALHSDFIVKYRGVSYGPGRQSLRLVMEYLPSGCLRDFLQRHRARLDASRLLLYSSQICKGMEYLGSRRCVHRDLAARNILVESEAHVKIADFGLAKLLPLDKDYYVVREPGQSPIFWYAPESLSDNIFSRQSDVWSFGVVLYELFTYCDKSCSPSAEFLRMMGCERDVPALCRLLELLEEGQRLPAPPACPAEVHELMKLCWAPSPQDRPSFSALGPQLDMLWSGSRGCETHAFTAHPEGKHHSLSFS
T1 sequence (O60674 with tags, fused parts or gaps): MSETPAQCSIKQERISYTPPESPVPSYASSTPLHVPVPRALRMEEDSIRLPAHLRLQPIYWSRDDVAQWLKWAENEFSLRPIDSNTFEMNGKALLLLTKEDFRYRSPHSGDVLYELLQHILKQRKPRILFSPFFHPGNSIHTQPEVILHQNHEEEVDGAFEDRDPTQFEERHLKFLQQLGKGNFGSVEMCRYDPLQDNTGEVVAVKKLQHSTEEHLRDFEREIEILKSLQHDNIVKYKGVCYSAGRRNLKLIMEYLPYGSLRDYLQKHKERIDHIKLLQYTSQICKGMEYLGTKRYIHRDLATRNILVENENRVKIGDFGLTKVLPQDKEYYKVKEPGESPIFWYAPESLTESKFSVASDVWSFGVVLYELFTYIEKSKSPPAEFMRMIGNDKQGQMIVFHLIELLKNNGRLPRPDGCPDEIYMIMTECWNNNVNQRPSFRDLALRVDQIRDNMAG

CCCC(Nc1cncc(-c2ccc(OCCN(CC)CC)c(OC)c2)n1)c1ccccc1 (stereo not drawn)
inhibition at 20 µM (DU145 (Prostate Cancer)): > 50%
inhibition at 20 µM (PC3 (Prostate Cancer)): > 50%
inhibition at 20 µM [1]: > 50%
inhibition at 20 µM [2]: > 50%
inhibition at 20 µM [3]: > 50%
Tubulin inhibition of tubulin polymerisation [4]: + (compounds which inhibited tubulin polymerisation by greater than 50% at 50 μM)

CCC[C@H](Nc1cncc(-c2ccc(NC(=O)NCC)c(OC)c2)n1)c1ccccc1
inhibition at 20 µM (DU145 (Prostate Cancer)): > 50%
inhibition at 20 µM (PC3 (Prostate Cancer)): > 50%
inhibition at 20 µM [1]: > 50%
inhibition at 20 µM [2]: > 50%
inhibition at 20 µM [3]: > 50%
Tubulin inhibition of tubulin polymerisation [4]: + (compounds which inhibited tubulin polymerisation by greater than 50% at 50 μM)

CCCC(Nc1cncc(-c2ccc(NC(=O)NCC)c(C)c2)n1)c1cnccc1C (stereo not drawn)
inhibition at 20 µM (DU145 (Prostate Cancer)): > 50%
inhibition at 20 µM (PC3 (Prostate Cancer)): > 50%
inhibition at 20 µM [1]: > 50%
inhibition at 20 µM [2]: > 50%
inhibition at 20 µM [3]: > 50%
Tubulin inhibition of tubulin polymerisation [4]: + (compounds which inhibited tubulin polymerisation by greater than 50% at 50 μM)

CCC[C@H](Nc1cncc(-c2ccc(NC(=O)NCC)c(OC)c2)n1)c1ccccn1
inhibition at 20 µM (DU145 (Prostate Cancer)): > 50%
inhibition at 20 µM (PC3 (Prostate Cancer)): > 50%
inhibition at 20 µM [1]: > 50%
inhibition at 20 µM [2]: > 50%
inhibition at 20 µM [3]: > 50%
Tubulin inhibition of tubulin polymerisation [4]: + (compounds which inhibited tubulin polymerisation by greater than 50% at 50 μM)

CCCC(Nc1cncc(-c2ccc(NC(=O)NCC)c(OC)c2)n1)c1cccnc1C (stereo not drawn)
inhibition at 20 µM (DU145 (Prostate Cancer)): > 50%
inhibition at 20 µM (PC3 (Prostate Cancer)): > 50%
inhibition at 20 µM [1]: > 50%
inhibition at 20 µM [2]: > 50%
inhibition at 20 µM [3]: > 50%
Tubulin inhibition of tubulin polymerisation [4]: + (compounds which inhibited tubulin polymerisation by greater than 50% at 50 μM)

CCC[C@H](Nc1cncc(-c2ccc(NC(=O)NC)c(OC)c2)n1)c1cccnc1
inhibition at 20 µM (DU145 (Prostate Cancer)): > 50%
inhibition at 20 µM (PC3 (Prostate Cancer)): > 50%
inhibition at 20 µM [1]: > 50%
inhibition at 20 µM [2]: > 50%
inhibition at 20 µM [3]: > 50%
Tubulin inhibition of tubulin polymerisation [4]: + (compounds which inhibited tubulin polymerisation by greater than 50% at 50 μM)

CCCC(Nc1nc(-c2ccc(NC(=O)NCC)c(OC)c2)cnc1C)c1ccccc1 (stereo not drawn)
inhibition at 20 µM (DU145 (Prostate Cancer)): > 50%
inhibition at 20 µM (PC3 (Prostate Cancer)): > 50%
inhibition at 20 µM [1]: > 50%
inhibition at 20 µM [2]: > 50%
inhibition at 20 µM [3]: > 50%
Tubulin inhibition of tubulin polymerisation [4]: + (compounds which inhibited tubulin polymerisation by greater than 50% at 50 μM)

CCNC(=O)Nc1ccc(-c2cncc(NC(CCOC)c3ccccc3)n2)cc1OC (stereo not drawn)
inhibition at 20 µM (DU145 (Prostate Cancer)): > 50%
inhibition at 20 µM (PC3 (Prostate Cancer)): > 50%
inhibition at 20 µM [1]: > 50%
inhibition at 20 µM [2]: > 50%
inhibition at 20 µM [3]: > 50%
Tubulin inhibition of tubulin polymerisation [4]: + (compounds which inhibited tubulin polymerisation by greater than 50% at 50 μM)

CCC[C@H](Nc1cc(-c2ccc(NC(=O)NCC)c(OC)c2)ncn1)c1cccnc1
inhibition at 20 µM (DU145 (Prostate Cancer)): > 50%
inhibition at 20 µM (PC3 (Prostate Cancer)): > 50%
inhibition at 20 µM [1]: > 50%
inhibition at 20 µM [2]: > 50%
inhibition at 20 µM [3]: > 50%
Tubulin inhibition of tubulin polymerisation [4]: + (compounds which inhibited tubulin polymerisation by greater than 50% at 50 μM)

CCNC(=O)Nc1ccc(-c2cncc(N[C@@H](COC)c3ccccc3)n2)cc1OC
inhibition at 20 µM (DU145 (Prostate Cancer)): > 50%
inhibition at 20 µM (PC3 (Prostate Cancer)): > 50%
inhibition at 20 µM [1]: > 50%
inhibition at 20 µM [2]: > 50%
inhibition at 20 µM [3]: > 50%
Tubulin inhibition of tubulin polymerisation [4]: + (compounds which inhibited tubulin polymerisation by greater than 50% at 50 μM)

CCNC(=O)Nc1ccc(-c2cncc(N[C@@H](COCC)c3ccccc3)n2)cc1OC
inhibition at 20 µM (DU145 (Prostate Cancer)): > 50%
inhibition at 20 µM (PC3 (Prostate Cancer)): > 50%
inhibition at 20 µM [1]: > 50%
inhibition at 20 µM [2]: > 50%
inhibition at 20 µM [3]: > 50%
Tubulin inhibition of tubulin polymerisation [4]: + (compounds which inhibited tubulin polymerisation by greater than 50% at 50 μM)

CCCC(Nc1cc(-c2ccc(O)c(OC)c2)ncn1)c1cccnc1 (stereo not drawn)
inhibition at 20 µM (DU145 (Prostate Cancer)): > 50%
inhibition at 20 µM (PC3 (Prostate Cancer)): > 50%
inhibition at 20 µM [1]: > 50%
inhibition at 20 µM [2]: > 50%
inhibition at 20 µM [3]: > 50%
Tubulin inhibition of tubulin polymerisation [4]: + (compounds which inhibited tubulin polymerisation by greater than 50% at 50 μM)

CCC[C@H](Nc1nc(-c2ccc(NC(=O)NCC)c(OC)c2)ncc1C)c1cccnc1
inhibition at 20 µM (DU145 (Prostate Cancer)): > 50%
inhibition at 20 µM (PC3 (Prostate Cancer)): > 50%
inhibition at 20 µM [1]: > 50%
inhibition at 20 µM [2]: > 50%
inhibition at 20 µM [3]: > 50%
Tubulin inhibition of tubulin polymerisation [4]: + (compounds which inhibited tubulin polymerisation by greater than 50% at 50 μM)

CCC[C@H](Nc1nc(-c2ccc(O)c(OC)c2)ncc1C)c1cccnc1
inhibition at 20 µM (DU145 (Prostate Cancer)): > 50%
inhibition at 20 µM (PC3 (Prostate Cancer)): > 50%
inhibition at 20 µM [1]: > 50%
inhibition at 20 µM [2]: > 50%
inhibition at 20 µM [3]: > 50%
Tubulin inhibition of tubulin polymerisation [4]: + (compounds which inhibited tubulin polymerisation by greater than 50% at 50 μM)

CCNC(=O)Nc1ccc(-c2ncc(C)c(N[C@@H](CC)c3cccnc3)n2)cc1OC
inhibition at 20 µM (DU145 (Prostate Cancer)): > 50%
inhibition at 20 µM (PC3 (Prostate Cancer)): > 50%
inhibition at 20 µM [1]: > 50%
inhibition at 20 µM [2]: > 50%
inhibition at 20 µM [3]: > 50%
Tubulin inhibition of tubulin polymerisation [4]: + (compounds which inhibited tubulin polymerisation by greater than 50% at 50 μM)

CC[C@H](Nc1nc(-c2ccc(O)c(OC)c2)ncc1C)c1cccnc1
inhibition at 20 µM (DU145 (Prostate Cancer)): > 50%
inhibition at 20 µM (PC3 (Prostate Cancer)): > 50%
inhibition at 20 µM [1]: > 50%
inhibition at 20 µM [2]: > 50%
inhibition at 20 µM [3]: > 50%
Tubulin inhibition of tubulin polymerisation [4]: + (compounds which inhibited tubulin polymerisation by greater than 50% at 50 μM)

CCC[C@H](Nc1ccnc(-c2ccc(NC(=O)NCC)c(OC)c2)n1)c1cccnc1
inhibition at 20 µM (DU145 (Prostate Cancer)): > 50%
inhibition at 20 µM (PC3 (Prostate Cancer)): > 50%
inhibition at 20 µM [1]: > 50%
inhibition at 20 µM [2]: > 50%
inhibition at 20 µM [3]: > 50%
Tubulin inhibition of tubulin polymerisation [4]: + (compounds which inhibited tubulin polymerisation by greater than 50% at 50 μM)

COc1cc(-c2cc(N[C@@H](C)c3ccccc3)ncn2)ccc1O
inhibition at 20 µM (DU145 (Prostate Cancer)): > 50%
inhibition at 20 µM (PC3 (Prostate Cancer)): > 50%
inhibition at 20 µM [1]: > 50%
inhibition at 20 µM [2]: > 50%
inhibition at 20 µM [3]: > 50%
Tubulin inhibition of tubulin polymerisation [4]: + (compounds which inhibited tubulin polymerisation by greater than 50% at 50 μM)
